Assay results: ChEMBL document CHEMBL1138114, “Convergent, parallel synthesis of a series of beta-substituted 1,2,4-oxadiazole butanoic acids as potent and selective alpha(v)beta3 receptor antagonists” (Bioorg Med Chem Lett, 2006)

How the values were obtained:
[1] = Bioavailability in rat at 5 mg/kg, iv; format: ADME, organism-based; conditions: in vivo
[2] = Half life in rat at 5 mg/kg, iv; format: ADME, organism-based; set-up: dose 5 mg/kg, route intravenous; conditions: in vivo
[3] = Clearance in rat at 5 mg/kg, iv; format: ADME, organism-based; set-up: dose 5 mg/kg, route intravenous; conditions: in vivo
[4] = target: Integrin alpha-IIb/beta-3 (Homo sapiens, UniProt P05106+P08514); experiment: Inhibition of Integrin alpha-2b-beta-3 receptor by SPRA assay; format: protein-complex assay
Integrin alpha-IIb/beta-3, sequence (P05106 27-788 limits assumed): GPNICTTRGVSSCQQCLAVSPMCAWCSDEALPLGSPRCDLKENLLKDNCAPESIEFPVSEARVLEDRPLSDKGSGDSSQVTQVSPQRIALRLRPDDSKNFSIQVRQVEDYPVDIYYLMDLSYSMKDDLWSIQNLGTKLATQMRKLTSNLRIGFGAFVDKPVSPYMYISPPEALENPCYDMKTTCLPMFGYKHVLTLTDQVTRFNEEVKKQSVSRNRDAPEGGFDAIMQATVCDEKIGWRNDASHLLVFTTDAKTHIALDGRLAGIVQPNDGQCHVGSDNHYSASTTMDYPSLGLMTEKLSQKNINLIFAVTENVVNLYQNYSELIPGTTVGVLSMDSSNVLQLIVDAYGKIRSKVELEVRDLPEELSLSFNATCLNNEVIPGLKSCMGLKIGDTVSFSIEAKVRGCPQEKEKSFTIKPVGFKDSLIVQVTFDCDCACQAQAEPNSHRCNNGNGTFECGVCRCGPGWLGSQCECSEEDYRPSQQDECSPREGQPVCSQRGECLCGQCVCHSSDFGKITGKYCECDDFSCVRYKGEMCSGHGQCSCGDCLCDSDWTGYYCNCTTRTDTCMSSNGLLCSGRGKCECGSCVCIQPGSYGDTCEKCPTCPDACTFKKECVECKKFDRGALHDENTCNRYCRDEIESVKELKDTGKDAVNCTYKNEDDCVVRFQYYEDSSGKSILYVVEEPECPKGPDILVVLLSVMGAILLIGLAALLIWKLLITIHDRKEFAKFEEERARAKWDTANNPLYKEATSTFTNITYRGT
Integrin alpha-IIb/beta-3, sequence (P08514 32-887 limits assumed): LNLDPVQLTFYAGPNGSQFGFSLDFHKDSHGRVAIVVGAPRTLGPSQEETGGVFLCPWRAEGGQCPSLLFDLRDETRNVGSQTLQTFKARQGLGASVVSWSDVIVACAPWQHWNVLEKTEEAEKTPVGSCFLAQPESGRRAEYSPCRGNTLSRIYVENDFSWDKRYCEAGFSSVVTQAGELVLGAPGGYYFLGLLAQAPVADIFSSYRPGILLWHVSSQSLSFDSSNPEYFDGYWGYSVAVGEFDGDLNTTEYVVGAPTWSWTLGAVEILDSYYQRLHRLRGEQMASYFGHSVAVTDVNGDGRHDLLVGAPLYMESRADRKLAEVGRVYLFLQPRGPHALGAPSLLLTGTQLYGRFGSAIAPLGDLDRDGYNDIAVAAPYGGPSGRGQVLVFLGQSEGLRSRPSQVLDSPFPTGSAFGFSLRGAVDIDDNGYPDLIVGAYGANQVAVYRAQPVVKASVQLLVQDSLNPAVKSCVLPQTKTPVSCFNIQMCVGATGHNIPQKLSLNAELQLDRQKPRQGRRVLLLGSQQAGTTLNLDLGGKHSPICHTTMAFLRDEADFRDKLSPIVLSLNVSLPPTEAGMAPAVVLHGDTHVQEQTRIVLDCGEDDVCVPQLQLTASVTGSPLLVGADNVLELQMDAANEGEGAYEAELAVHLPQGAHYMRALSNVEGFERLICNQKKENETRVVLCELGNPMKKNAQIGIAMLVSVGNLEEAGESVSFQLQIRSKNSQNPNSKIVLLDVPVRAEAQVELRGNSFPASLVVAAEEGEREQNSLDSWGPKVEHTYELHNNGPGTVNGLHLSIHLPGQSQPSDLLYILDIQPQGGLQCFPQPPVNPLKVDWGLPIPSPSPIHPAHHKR
Integrin alpha-IIb/beta-3, sequence (P08514 891-1039 limits assumed): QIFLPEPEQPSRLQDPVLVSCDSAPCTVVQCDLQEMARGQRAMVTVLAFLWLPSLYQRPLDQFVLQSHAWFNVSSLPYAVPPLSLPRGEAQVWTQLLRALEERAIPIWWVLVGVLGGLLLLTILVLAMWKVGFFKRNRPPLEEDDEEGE

[5] = target: T1, Integrin alpha-V/beta-3 (Homo sapiens, UniProt P05106+P06756); experiment: Inhibition of Integrin alphav-beta3 receptor expressed in HEK293 cells; format: cell-based
T1 sequence (P05106 27-788 limits assumed): as the sequence (P05106 27-788 limits assumed) above
T1 sequence (P06756 31-889 limits assumed): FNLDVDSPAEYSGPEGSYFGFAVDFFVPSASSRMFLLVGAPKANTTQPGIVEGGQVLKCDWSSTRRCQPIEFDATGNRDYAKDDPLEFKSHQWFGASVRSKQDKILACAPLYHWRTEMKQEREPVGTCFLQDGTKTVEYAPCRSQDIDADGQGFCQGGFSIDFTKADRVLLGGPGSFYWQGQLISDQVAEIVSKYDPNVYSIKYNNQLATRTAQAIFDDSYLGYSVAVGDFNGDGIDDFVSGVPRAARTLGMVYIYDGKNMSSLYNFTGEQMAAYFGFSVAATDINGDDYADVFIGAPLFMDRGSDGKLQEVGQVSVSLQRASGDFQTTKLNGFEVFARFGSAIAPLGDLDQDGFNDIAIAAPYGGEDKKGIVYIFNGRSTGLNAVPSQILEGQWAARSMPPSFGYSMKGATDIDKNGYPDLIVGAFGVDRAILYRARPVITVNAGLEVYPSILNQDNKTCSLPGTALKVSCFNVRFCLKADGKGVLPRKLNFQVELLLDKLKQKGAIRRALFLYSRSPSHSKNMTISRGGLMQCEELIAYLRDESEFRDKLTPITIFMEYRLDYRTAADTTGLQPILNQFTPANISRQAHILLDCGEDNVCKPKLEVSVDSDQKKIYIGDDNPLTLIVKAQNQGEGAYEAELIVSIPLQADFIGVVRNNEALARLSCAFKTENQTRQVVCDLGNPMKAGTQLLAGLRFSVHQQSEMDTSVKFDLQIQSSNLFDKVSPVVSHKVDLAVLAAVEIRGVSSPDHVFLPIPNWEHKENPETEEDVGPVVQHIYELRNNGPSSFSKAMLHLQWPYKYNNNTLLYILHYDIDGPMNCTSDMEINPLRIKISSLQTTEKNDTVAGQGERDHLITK
T1 sequence (P06756 891-1048 limits assumed): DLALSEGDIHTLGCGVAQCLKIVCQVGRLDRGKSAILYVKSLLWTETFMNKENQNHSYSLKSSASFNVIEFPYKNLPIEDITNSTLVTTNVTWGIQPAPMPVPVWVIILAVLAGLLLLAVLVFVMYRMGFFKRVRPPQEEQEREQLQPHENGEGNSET

[6] = test system: Rattus norvegicus; experiment: AUC/dose(mg/kg) in orally dosed rat at 10 mg/kg; format: ADME, organism-based, Plasma; set-up: dose 10 mg/kg, route oral; conditions: in vivo, po
[7] = Volume of distribution in rat at 5 mg/kg, iv; format: ADME, organism-based; set-up: dose 5 mg/kg, route intravenous; conditions: in vivo, read-out: Vdss
[8] = target: T1, Integrin alpha-V/beta-3; experiment: Inhibition of Integrin alphav-beta3 receptor by SPRA assay; format: protein-complex assay
[9] = target: Integrin alpha-V/beta-1 (Homo sapiens, UniProt P05556+P06756); experiment: Inhibition of Integrin alphav-beta1 receptor expressed in HEK293 cell line; format: cell-based
Integrin alpha-V/beta-1, sequence (P05556 21-798 limits assumed): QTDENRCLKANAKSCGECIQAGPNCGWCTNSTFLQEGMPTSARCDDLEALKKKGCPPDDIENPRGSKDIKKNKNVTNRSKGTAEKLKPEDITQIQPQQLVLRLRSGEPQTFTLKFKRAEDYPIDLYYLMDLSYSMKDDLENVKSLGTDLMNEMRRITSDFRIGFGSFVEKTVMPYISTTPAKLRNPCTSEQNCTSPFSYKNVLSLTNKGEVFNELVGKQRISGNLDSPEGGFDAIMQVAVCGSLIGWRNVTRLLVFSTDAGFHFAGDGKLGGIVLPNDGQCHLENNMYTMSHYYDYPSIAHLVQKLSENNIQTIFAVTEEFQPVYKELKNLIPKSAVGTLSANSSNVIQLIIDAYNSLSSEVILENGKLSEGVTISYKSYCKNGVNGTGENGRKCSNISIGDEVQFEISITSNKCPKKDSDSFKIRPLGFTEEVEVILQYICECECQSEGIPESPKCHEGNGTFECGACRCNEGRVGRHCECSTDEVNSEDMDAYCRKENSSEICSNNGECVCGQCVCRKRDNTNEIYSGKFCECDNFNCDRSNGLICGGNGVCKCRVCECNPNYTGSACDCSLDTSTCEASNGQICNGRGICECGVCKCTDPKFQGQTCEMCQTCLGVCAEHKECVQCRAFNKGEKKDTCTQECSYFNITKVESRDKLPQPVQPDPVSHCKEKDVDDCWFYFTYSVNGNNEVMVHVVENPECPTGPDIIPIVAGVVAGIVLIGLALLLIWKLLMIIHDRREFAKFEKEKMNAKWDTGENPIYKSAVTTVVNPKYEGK
Integrin alpha-V/beta-1, sequence (P06756 31-889 limits assumed): as the sequence (P06756 31-889 limits assumed) above
Integrin alpha-V/beta-1, sequence (P06756 891-1048 limits assumed): as the sequence (P06756 891-1048 limits assumed) above

[10] = target: Integrin alpha-V/beta-6 (Homo sapiens, UniProt P06756+P18564); experiment: Inhibition of Integrin alphav-beta6 receptor expressed in HT29 cell line; format: cell-based, HT-29
Integrin alpha-V/beta-6, sequence (P06756 31-889 limits assumed): as the sequence (P06756 31-889 limits assumed) above
Integrin alpha-V/beta-6, sequence (P06756 891-1048 limits assumed): as the sequence (P06756 891-1048 limits assumed) above
Integrin alpha-V/beta-6, sequence (P18564 22-788 limits assumed): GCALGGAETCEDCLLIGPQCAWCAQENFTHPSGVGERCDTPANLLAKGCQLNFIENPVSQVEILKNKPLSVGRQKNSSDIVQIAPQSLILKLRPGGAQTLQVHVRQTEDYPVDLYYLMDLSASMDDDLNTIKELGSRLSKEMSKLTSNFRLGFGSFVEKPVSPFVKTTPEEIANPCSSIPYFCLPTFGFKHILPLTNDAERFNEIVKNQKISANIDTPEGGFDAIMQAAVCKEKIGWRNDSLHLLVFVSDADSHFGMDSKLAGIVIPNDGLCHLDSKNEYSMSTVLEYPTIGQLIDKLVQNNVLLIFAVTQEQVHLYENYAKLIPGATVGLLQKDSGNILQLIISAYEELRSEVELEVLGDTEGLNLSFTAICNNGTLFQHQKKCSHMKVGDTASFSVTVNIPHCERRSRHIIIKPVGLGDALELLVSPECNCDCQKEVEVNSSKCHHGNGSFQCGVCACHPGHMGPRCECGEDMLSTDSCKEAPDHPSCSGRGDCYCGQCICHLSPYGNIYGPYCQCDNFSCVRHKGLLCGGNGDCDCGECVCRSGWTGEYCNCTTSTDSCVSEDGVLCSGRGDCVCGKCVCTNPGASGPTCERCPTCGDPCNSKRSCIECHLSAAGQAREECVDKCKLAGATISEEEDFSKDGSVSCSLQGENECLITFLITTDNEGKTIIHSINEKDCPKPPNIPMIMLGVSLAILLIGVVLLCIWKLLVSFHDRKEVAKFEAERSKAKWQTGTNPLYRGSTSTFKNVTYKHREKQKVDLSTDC

[11] = target: Integrin alpha-V/beta-5 (Homo sapiens, UniProt P06756+P18084); experiment: Inhibition of Integrin alphav-beta5 receptor expressed in HEK293 cell line; format: cell-based

Compound	bioavailability [1] [%]	half-life [2] [h]	clearance [3] [mL/min/kg]	IC50 [4] [nM]	IC50 [5] [nM]	AUC/dose [6]	Vd [7] [L/kg]	IC50 [8] [nM]	IC50 [9] [nM]	IC50 [10] [nM]	IC50 [11] [nM]
O=C(O)CC(Cc1nc(CCCc2ccc3c(n2)NCCC3)no1)c1ccc2c(c1)OCC2 (stereo not given)	63	1.2	17.3	224	0.63	970 ng·h/mL/(mg/kg)	0.803	2.1	9.7	3020	
O=C(O)CC(Cc1nc(CCCc2ccc3c(n2)NCCC3)no1)c1cccc(F)c1 (stereo not given)				419	1.1			1.75		3730	3.7
O=C(O)C[C@H](Cc1nc(CCCCNc2ccccn2)no1)c1ccc2c(c1)OCO2				126				2.4			
CC(CC(=O)O)(Cc1nc(CCCc2ccc3c(n2)NCCC3)no1)c1cccnc1 (stereo not given)				950				3.6			
O=C(O)CC(Cc1nc(CCCc2ccc3c(n2)NCCC3)no1)c1ccccc1 (stereo not given)				747				1.8			
O=C(O)CCCc1nc(CCCc2ccc3c(n2)NCCC3)no1				32500				160			
CC(C)(CC(=O)O)Cc1nc(CCCc2ccc3c(n2)NCCC3)no1				12600				20			
O=C(O)CC1(Cc2nc(CCCc3ccc4c(n3)NCCC4)no2)CCCC1				8130				9.5			
C#CC(CC(=O)O)Cc1nc(CCCc2ccc3c(n2)NCCC3)no1 (stereo not given)				1220	4			8.7		6240	4
CNc1cccc(CCCc2noc(CC(CC(=O)O)c3ccc4c(c3)OCO4)n2)n1 (stereo not given)				278	3.2			2.1		> 10000	16
CN1CCNc2nc(CCCc3noc(CC(CC(=O)O)c4ccc5c(c4)OCO5)n3)ccc21 (stereo not given)	77	0.93	18.2			710 ng·h/mL/(mg/kg)	0.447	1.7			
Cc1ncc(C(CC(=O)O)Cc2nc(CCCc3ccc4c(n3)NCCC4)no2)s1 (stereo not given)				423				1.28			
O=C(O)CC(Cc1nc(CCCc2ccc3c(n2)NCCC3)no1)c1cnc2ccccc2c1 (stereo not given)	66	1.1	19.1	18		600 ng·h/mL/(mg/kg)	0.622	0.65			
CC(CC(=O)O)(Cc1nc(CCCc2ccc3c(n2)NCCC3)no1)c1ccccc1 (stereo not given)				35800				116			
Cc1ccnc(NCCCCc2noc(C[C@@H](CC(=O)O)c3ccc4c(c3)OCO4)n2)c1				91				2			
COc1ccnc(NCCCCc2noc(C[C@@H](CC(=O)O)c3ccc4c(c3)OCO4)n2)c1				64				1.1			
O=C(O)C[C@H](Cc1nc(CCCCNc2cc(N3CCSCC3)ccn2)no1)c1ccc2c(c1)OCO2	29	0.4	78	22	0.62	60 ng·h/mL/(mg/kg)	0.897	0.26		2670	2.9
O=C(O)C[C@H](Cc1nc(CCCCNc2cc(N3CCOCC3)ccn2)no1)c1ccc2c(c1)OCO2				17	0.74			0.78		4360	4.6
O=C(O)CC(Cc1nc(CCCc2ccc3c(n2)NCCC3)no1)c1cnc(C2CC2)s1 (stereo not given)	96	1.8	5.56	168	0.6	3050 ng·h/mL/(mg/kg)	0.497	1.43		1590	1.2
O=C(O)C[C@H](Cc1nc(CCCc2ccc3c(n2)NCCC3)no1)c1ccc2c(c1)OCO2	95	1.4	10.9	27	0.65	1500 ng·h/mL/(mg/kg)	0.733	0.4	2.6	2660	1.7
O=C(O)CC(Cc1nc(CCCc2ccc3c(n2)NCCC3)no1)c1cnn(-c2ccccc2)c1 (stereo not given)				216				1.2			
O=C(O)CC(Cc1nc(CCCc2ccc3c(n2)NCCC3)no1)c1ccc2ncoc2c1 (stereo not given)				65.4	0.32			0.5	2.7	486	
COc1ccc(C(CC(=O)O)Cc2nc(CCCc3ccc4c(n3)NCCC4)no2)cn1 (stereo not given)	100	1.1	12	187		1910 ng·h/mL/(mg/kg)	0.694	1			
CC(CC(=O)O)Cc1nc(CCCc2ccc3c(n2)NCCC3)no1 (stereo not given)				9300				12			
O=C(O)CC(Cc1nc(CCCc2ccc3c(n2)NCCC3)no1)c1cccnc1 (stereo not given)				474	0.77			1.6		2420	3.3
